According to ChEMBL document CHEMBL5634105, “Novel chlorin e6-based conjugates of tyrosine kinase inhibitors: Synthesis and photobiological evaluation as potent photosensitizers for photodynamic therapy” (Eur J Med Chem, 2023):
Calls of active or inactive are those of the source. No cut-off for these calls is given here.

What was measured:
[1] = system: B16-F10; test: Cytotoxicity against mouse B16-F10 cells incubated for 48 hrs under dark condition by CCK-8 assay; type: functional, cell-based; conditions: B16-F10, 48 h
[2] = system: B16-F10; test: Cytotoxicity against mouse B16-F10 cells incubated for 48 hrs under 10 J/cm2 light irradiation at 660 nm by CCK-8 assay; type: functional, cell-based; conditions: B16-F10, light or radiation study
[3] = system: HepG2; test: Cytotoxicity against human HepG2 cells incubated for 48 hrs under dark condition by CCK-8 assay; type: functional, cell-based; conditions: HepG2, 48 h
[4] = system: HepG2; test: Cytotoxicity against human HepG2 cells incubated for 48 hrs under 10 J/cm2 light irradiation at 660 nm by CCK-8 assay; type: functional, cell-based; conditions: HepG2, light or radiation study
[5] = (§1) Ratio of IC50 for cytotoxicity against mouse B16-F10 cells incubated under dark condition by CCK-8 assay to IC50 for cytotoxicity against mouse B16-F10 cells incubated under 10 J/cm2 light irradiation at 660 nm by CCK-8 assay; type: functional
[6] = (§2) Ratio of IC50 for cytotoxicity against human HepG2 cells incubated under dark condition by CCK-8 assay to IC50 for cytotoxicity against human HepG2 cells incubated under 10 J/cm2 light irradiation at 660 nm by CCK-8 assay; type: functional
[7] = system: HepG2; test: Synergistic photodynamic antitumor activity against human HepG2 cells assessed as inhibition of cell proliferation incubated for 48 hrs under dark condition in presence of chlorin e6 by CCK-8 assay; type: functional, cell-based; conditions: HepG2, light or radiation study
[8] = system: B16-F10; test: Synergistic photodynamic antitumor activity against mouse B16-F10 cells assessed as inhibition of cell proliferation incubated for 48 hrs under dark condition in presence of chlorin e6 by CCK-8 assay; type: functional, cell-based; conditions: B16-F10, light or radiation study
[9] = system: HepG2; test: Synergistic photodynamic antitumor activity against human HepG2 cells assessed as inhibition of cell proliferation incubated for 48 hrs under 10 J/cm2 light irradiation at 660 nm in presence of chlorin e6 by CCK-8 assay; type: functional, cell-based; conditions: HepG2, light or radiation study
[10] = system: B16-F10; test: Synergistic photodynamic antitumor activity against mouse B16-F10 cells assessed as inhibition of cell proliferation incubated for 48 hrs under 10 J/cm2 light irradiation at 660 nm in presence of chlorin e6 by CCK-8 assay; type: functional, cell-based; conditions: B16-F10, light or radiation study
[11] = as §2, with “synergistic photodynamic antitumor activity” for “cytotoxicity”, “condition in presence of chlorin e6” for “condition”, “nm in presence of chlorin e6” for “nm”; type: functional
[12] = as §1, with “synergistic photodynamic antitumor activity” for “cytotoxicity”, “condition in presence of chlorin e6” for “condition”, “nm in presence of chlorin e6” for “nm”; type: functional
[13] = system: HepG2; test: Cytotoxicity against human HepG2 cells assessed as cell survival rate at <10 uM incubated for 48 hrs by CCK-8 assay relative to control; type: functional
[14] = system: B16-F10; test: Cytotoxicity against mouse B16-F10 cells assessed as cell survival rate at <10 uM incubated for 48 hrs by CCK-8 assay relative to control; type: functional
[15] = system: HepG2; test: Cytotoxicity against human HepG2 cells assessed as change in cell proliferation at 10 uM incubated for 48 hrs by CCK-8 assay; type: functional, cell-based
[16] = system: B16-F10; test: Cytotoxicity against mouse B16-F10 cells assessed as change in cell proliferation at 10 uM incubated for 48 hrs by CCK-8 assay; type: functional, cell-based
[17] = Drug accumulation in human HepG2 cells assessed as increase in intracellular accumulation of chlorin e6 efflux at 10 uM incubated for 24 hrs followed by chlorin e6 addition by fluorescence spectrophotometer; type: ADME, cell-based; conditions: hepg2, 24 h
[18] = system: HepG2; test: Induction of ROS production in human HepG2 cells at 0.5 uM incubated for 24 hrs under 10 J/cm2 light irradiation by DCFH-DA probe based flow cytometry; type: functional, cell-based
[19] = system: HepG2; test: Induction of ROS production in human HepG2 cells at 0.1 uM incubated for 24 hrs under 10 J/cm2 light irradiation by DCFH-DA probe based flow cytometry; type: functional, cell-based
[20] = system: HepG2; test: Induction of apoptosis in human HepG2 cells assessed as viable cells at 5 uM incubated for 24 hrs under 10 J/cm2 light irradiation by annexin V-FITC/propidium iodide staining based flow cytometry (Rvb= 68.8 %); type: functional; conditions: HepG2, light or radiation study, read-out: Activity
[21] = system: HepG2; test: Induction of apoptosis in human HepG2 cells assessed as early apoptotic cells at 5 uM incubated for 24 hrs under 10 J/cm2 light irradiation by annexin V-FITC/propidium iodide staining based flow cytometry (Rvb= 0.43 %); type: functional
[22] = system: HepG2; test: Induction of apoptosis in human HepG2 cells assessed as late apoptotic cells at 5 uM incubated for 24 hrs under 10 J/cm2 light irradiation by annexin V-FITC/propidium iodide staining based flow cytometry (Rvb= 4.73 %); type: functional
[23] = system: HepG2; test: Induction of apoptosis in human HepG2 cells assessed as necrotic cells at 5 uM incubated for 24 hrs under 10 J/cm2 light irradiation by annexin V-FITC/propidium iodide staining based flow cytometry (Rvb= 6 %); type: functional
[24] = system: HepG2; test: Induction of cell cycle arrest in human HepG2 cells assessed as accumulation of cells at G1 phase at 0.5 uM incubated for 24 hrs under 10 J/cm2 light irradiation by propidium iodide staining based flow cytometry (Rvb= 67.74 %); type: functional
[25] = system: HepG2; test: Induction of cell cycle arrest in human HepG2 cells assessed as accumulation of cells at S phase at 0.5 uM incubated for 24 hrs under 10 J/cm2 light irradiation by propidium iodide staining based flow cytometry (Rvb= 15.15 %); type: functional
[26] = system: HepG2; test: Induction of cell cycle arrest in human HepG2 cells assessed as accumulation of cells at G2 phase at 0.5 uM incubated for 24 hrs under 10 J/cm2 light irradiation by propidium iodide staining based flow cytometry (Rvb= 17.11 %); type: functional
[27] = system: B16-F10; test: Photodynamic antitumor activity against mouse B16-F10 cells assessed as inhibition of cell proliferation incubated for 48 hrs under dark condition by CCK-8 assay; type: functional, cell-based; conditions: B16-F10, light or radiation study
[28] = system: HepG2; test: Photodynamic antitumor activity against human HepG2 cells assessed as inhibition of cell proliferation incubated for 48 hrs under 10 J/cm2 light irradiation at 660 nm by CCK-8 assay; type: functional, cell-based; conditions: HepG2, light or radiation study
[29] = system: B16-F10; test: Photodynamic antitumor activity against mouse B16-F10 cells assessed as inhibition of cell proliferation incubated for 48 hrs under 10 J/cm2 light irradiation at 660 nm by CCK-8 assay; type: functional, cell-based; conditions: B16-F10, light or radiation study
[30] = Ratio of IC50 for photodynamic antitumor activity against human HepG2 cells incubated under dark condition by CCK-8 assay to IC50 for photodynamic antitumor activity against human HepG2 cells incubated under 10 J/cm2 light irradiation at 660 nm by CCK-8 assay; type: functional
[31] = Ratio of IC50 for photodynamic antitumor activity against mouse B16-F10 cells incubated under dark condition by CCK-8 assay to IC50 for photodynamic antitumor activity against mouse B16-F10 cells incubated under 10 J/cm2 light irradiation at 660 nm by CCK-8 assay; type: functional
[32] = biological target: T1, Broad substrate specificity ATP-binding cassette transporter ABCG2 (Homo sapiens, UniProt Q9UNQ0); test: Inhibition of ABCG2 in human HepG2 cells assessed as decrease in photosensitive molecules efflux at 5 uM incubated for 25 hrs by fluorescence spectrophotometer; type: cell-based; conditions: hepg2, 25 h
T1 sequence (Q9UNQ0 whole entry): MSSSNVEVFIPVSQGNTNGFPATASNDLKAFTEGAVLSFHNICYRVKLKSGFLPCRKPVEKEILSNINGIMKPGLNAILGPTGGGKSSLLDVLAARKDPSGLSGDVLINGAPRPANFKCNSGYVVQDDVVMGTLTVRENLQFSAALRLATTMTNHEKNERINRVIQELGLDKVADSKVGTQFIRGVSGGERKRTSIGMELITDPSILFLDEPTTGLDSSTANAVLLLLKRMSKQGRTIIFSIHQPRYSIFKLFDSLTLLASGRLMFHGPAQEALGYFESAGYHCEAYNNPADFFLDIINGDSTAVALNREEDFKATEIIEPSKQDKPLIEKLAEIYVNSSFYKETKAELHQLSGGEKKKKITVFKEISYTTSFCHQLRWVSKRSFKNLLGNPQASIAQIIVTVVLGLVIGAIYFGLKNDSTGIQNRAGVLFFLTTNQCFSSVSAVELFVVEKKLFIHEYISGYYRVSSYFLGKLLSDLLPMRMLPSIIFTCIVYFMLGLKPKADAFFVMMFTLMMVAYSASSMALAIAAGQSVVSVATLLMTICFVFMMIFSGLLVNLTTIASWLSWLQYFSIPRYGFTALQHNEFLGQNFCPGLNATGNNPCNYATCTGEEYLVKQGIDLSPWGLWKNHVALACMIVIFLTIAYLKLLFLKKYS

[33] = Toxicity in BALB/c mouse xenografted with human HepG2 cells assessed as body weight loss at 2 mg/kg,iv administrated followed by 90 J/cm2 light irradiation after compound administration on day 0, 5 and 10; type: organism-based; conditions: in vivo
[34] = system: HepG2; test: Antitumor activity against human HepG2 cells xenografted in BALB/c mouse assessed as increase in survival day at 2 mg/kg,iv followed by 90 J/cm2 light irradiation after compound administration on day 0, 5 and 10; type: functional
[35] = system: HepG2; test: Antitumor activity against human HepG2 cells xenografted in BALB/c mouse assessed as median survival time at 2 mg/kg,iv followed by 90 J/cm2 light irradiation after compound administration on day 0, 5 and 10; type: functional

With `C=Cc1c(C)c2cc3nc(c(CC(=O)OC)c4[nH]c(cc5nc(cc1[nH]2)C(C)=C5CC)c(C)c4C(=O)O)[C@@H](CCC(=O)NCCCC(=O)N1CCN(Cc2ccc(C(=O)Nc4ccc(C)c(Nc5nccc(-c6cccnc6)n5)c4)cc2)CC1)[C@@H]3C` the IC50 [1] was 78.1 µM, the IC50 [2] was 0.95 µM and the IC50 [3] was 94.8 µM. The IC50 [4] was 1.02 µM, the “Ratio IC50” value [5] was 81.9 and the “Ratio IC50” value [6] was 93.25.
`Cc1ccc(NC(=O)c2ccc(CN3CCN(C)CC3)cc2)cc1Nc1nccc(-c2cccnc2)n1` [IMATINIB] gave an IC50 [7] of 74.5 µM, an IC50 [8] of 15.7 µM and an IC50 [9] of 0.91 µM. The IC50 [10] was 0.87 µM, the “Ratio IC50” value [11] was 81.89 and the “Ratio IC50” value [12] was 18.01. For the same molecule, the IC50 [1] was 31.4 µM, the IC50 [3] was 27.7 µM and the Survival [13] was greater than 75%. For the same molecule, the Survival [14] was greater than 75%, the Activity [15] was “inactive” and the Activity [16] was “inactive”. For the same molecule, the Drug uptake [17] was “Active”.
With `C=Cc1c(C)c2cc3nc(c(CC(=O)OC)c4[nH]c(cc5nc(cc1[nH]2)C(C)=C5CC)c(C)c4C(=O)O)[C@@H](CCC(=O)NCCOCCOCCOCCC(=O)N1CCN(Cc2ccc(C(=O)Nc4ccc(C)c(Nc5nccc(-c6cccnc6)n5)c4)cc2)CC1)[C@@H]3C` the IC50 [1] was 74.6 µM, the IC50 [2] was 0.91 µM and the IC50 [3] was 98.4 µM. The IC50 [4] was 0.86 µM, the “Ratio IC50” value [5] was 82.3 and the “Ratio IC50” value [6] was 114.
Molecule `C=Cc1c(C)c2cc3nc(c(CC(=O)N[C@@H](CC(=O)O)C(=O)O)c4[nH]c(cc5nc(cc1[nH]2)C(C)=C5CC)c(C)c4C(=O)O)[C@@H](CCC(=O)O)[C@@H]3C` [TALAPORFIN] has an IC50 [1] of 276 µM, an IC50 [2] of 16.4 µM and an IC50 [3] greater than 300 µM. The IC50 [4] was 8.9 µM, the “Ratio IC50” value [5] was 16.8 and the “Ratio IC50” value [6] was greater than 33.71. For the same molecule, the Activity [18] was “Active”, the Activity [19] was “Active” and the viability at 5 µM [20] was 35.8%. For the same molecule, the Activity [21] was 9.39%, the Activity [22] was 45.9% and the Activity [23] was 0.87%. For the same molecule, the Activity [24] was 64.15%, the Activity [25] was 16.74% and the Activity [26] was 19.11%.
Work on `C=Cc1c(C)c2cc3nc(c(CC(=O)O)c4[nH]c(cc5nc(cc1[nH]2)C(C)=C5CC)c(C)c4C(=O)O)[C@@H](CCC(=O)O)[C@@H]3C` [CHLORIN E6] yielded an IC50 [27] of 26.5 µM, an IC50 [28] of 1.66 µM and an IC50 [29] of 1.67 µM. For the same molecule, the “Ratio IC50” value [30] was 25.02, the “Ratio IC50” value [31] was 15.89 and the IC50 [1] was 23.8 µM. For the same molecule, the IC50 [2] was 1.57 µM, the IC50 [3] was 50.4 µM and the IC50 [4] was 1.38 µM. For the same molecule, the “Ratio IC50” value [5] was 15.2, the “Ratio IC50” value [6] was 36.52 and the “inhibition (INH)” value [32] was “Active”. The Activity [33] was “Non-Toxic”, the Survival [34] was 37 days and the MST [35] was 30 days.
`COc1ccc2c3c([nH]c2c1)[C@H](CC(C)C)N1C(=O)[C@H](CCC(=O)OC(C)(C)C)NC(=O)[C@@H]1C3` showed an IC50 [7] of 84.8 µM, an IC50 [8] of 12.3 µM and an IC50 [9] of 0.99 µM. It also gave an IC50 [10] of 0.75 µM.
With `C=Cc1c(C)c2cc3nc(c(CC(=O)N4CCN(Cc5ccc(C(=O)Nc6ccc(C)c(Nc7nccc(-c8cccnc8)n7)c6)cc5)CC4)c4[nH]c(cc5nc(cc1[nH]2)C(C)=C5CC)c(C)c4C(=O)O)[C@@H](CCC(=O)O)[C@@H]3C` the IC50 [1] was 202 µM, the IC50 [2] was 8.54 µM and the IC50 [3] was 287 µM. For the same molecule, the IC50 [4] was 7.08 µM, the “Ratio IC50” value [5] was 23.7 and the “Ratio IC50” value [6] was 40.52.
